Patent publication US20100160454A1, “ANTIMICROBIAL AGENTS, COMPOSITIONS AND PRODUCTS CONTAINING THE SAME, AND METHODS OF USING THE COMPOSITIONS AND PRODUCTS” (Eastman Chemical Company, priority 2008, published 2010)

Legend:
Assay type in all cases: cell-based
[1] = test system: Aspergillus niger Wild type; test: Microbiological challenge testing in BPW broth, graded subculture counts; details: A. niger
Method: The microorganisms in the table below were used in challenge tests. They were either ATCC (American Type Culture Collection) or “wild type” as indicated. Wild type organisms were problematic organisms previously isolated from chemical products.
All of the microorganisms were grown in Tryptose Soy Broth (TSB), DIFCO™ available from Becton, Dickinson and Company, containing 1% dextrose. Candida albicans and Aspergillus niger, were incubated at 22° C.+/−2° C. for at least 96 hours. All bacteria were incubated at 35° C.+/−2° C. in a humidified incubator for at least 96 hours.
Candida albicans and Aspergillus niger were also grown on Sabouraud Dextrose Agar (SABD) at 22° C. for 7 to 14 days or until full sporulation was achieved.
The following procedure was followed to determine the amount of each challenge material (inoculum broth) needed to produce a 10^8 CFU/mL challenge, which is equivalent to a final test-sample microbial concentration of 10^5 to 10^6 CFU/mL (CFU=colony forming units).
Using a sterile pipette, 1 mL of the growth from each TSB culture was transferred into tubes of 9 mL buffered water (pH 7.2 phosphate buffer) and mixed thoroughly. This was repeated to make serial 1:10 dilutions. Then, 0.1 mL of each sample and dilution was inoculated onto agar plates to produce the equivalent of a further 1:10 dilution. (C. albicans and A. niger were inoculated onto SABD and bacteria were inoculated onto Plate Count Agar (PCA), DIFCO™ available from Becton, Dickinson and Company.) (The normal volume plated for most samples was 0.1 mL. Some samples that could be very low in micro-organisms (high dilutions) were plated using 0.5 mL of inoculum, in order to produce reproducible counts.) The samples were distributed on the plates using the spread-plate technique. The spread-plate technique is carried out by spreading the sample over the entire plate surface using a sterile spreading rod while rotating the plate with a rotary auto-plater. After the inoculum was absorbed completely by the agar, each plate was inverted and incubated (fungi at 22° C.+/−2° C. and bacteria at 35° C.+/−2° C.).
After incubation for at least 48 hours, colonies that had developed on the agar plates were counted (CFU) and recorded with the corresponding dilution. If counting had to be delayed temporarily, plates were refrigerated, preferably no more than 24 hours, until they could be counted. The number of CFU/mL was determined by multiplying the plate count by the dilution factor of the plate counted.
Turbidity in Nepholemetric Turbidity Units (NTU) was measured for each serial dilution using the HF-Micro 100 Model Turbidimeter. For each microorganism, the plate counts were compared to the turbidity readings.
Aspergillus niger cultures were harvested and spores dislodged from the SABD on which they were grown by rubbing the growth gently with a sterile inoculating loop. The spores were then mixed into the broth culture that had been incubated with a sterile magnetic stir bar to reduce pellicle formation. The spore-culture mixture was filtered repeatedly through sterile, nonabsorbent cotton and harvested repeatedly, adjusting vegetative cells and spores to a level of 1.0×10^8. A hemocytometer was used to verify the final challenge concentration.
Control substrates (“broth alone”) were prepared for each microorganism separately in triplicate by adding 13.5 mL of Buffered Peptone Water broth (BPW) containing 1% dextrose to each 20-mL glass tube, then adding 1.5 mL challenge material to produce a final concentration at time zero of 10^5 to 10^6 CFU/mL and a total volume of 15 mL.

Streptococcus pyogenes = test: Determination of MIC and MLC in test broth; details: 30-day subculture
Method: (§1) Two antimicrobial endpoints were investigated. The minimum inhibitory concentration (MIC), which identifies the lowest concentration of test material at which growth for a specific organism is inhibited (by a minimum of 3 log units), reflects “biostatic activity”. The minimum lethal concentration (MLC), or lowest concentration that kills the organism and at which subculturing with growth is not possible, reflects “biocidal activity”. 1,4-CHDM and propylene glycol (PG) were added to previously sterilized screw-cap glass tubes and diluted with Peptone Water Broth with 2 wt % Dextrose (=test broth) to the following dilutions (weight percent): 0.05, 0.075, 0.125, 0.25, 0.5, 0.75, 1.25, 2.5, 5.0, 7.5, 10.0, 15.0, 20.0.
(§2) Each of 12 sets of the above test tubes were challenged with specific organisms (see Table 5) to produce a contamination of between 1.0×10^5 cfu/g and 1.0×10^6 cfu/g in the test broth to which no 1,4-CHDM or propylene glycol had been added. These challenge organisms were prepared in TSB broth, allowed to grow for 72 hours at 35° C.+/−2° C., centrifuged at 2500 rpm for 5 minutes, and the supernatant broth was removed. The microbial pellet was then re-diluted with sterile buffered water to a turbidity that matched previous 1.0×10^6 cfu/g concentrations of that organism's specific growth curve. This challenge was repeated on day 3. Plate counts of both challenges enumerated to within 1.0×10^5+/−5,000 cfu/g after 7 days incubation at 35° C.+/−2° C.
(§3) These tubes were mixed well by inversion (minimum of 25 inversions) and incubated at 35° C.+/−2° C. The tubes were inverted again (minimum of 25 times) on the third and seventh day of incubation and prior to each subculture.
(§4) These subcultures were incubated under optimal conditions and nutrition for no less than 5 days. Subcultures of 0.1 ml, undiluted and diluted 1:10, 1:100, . . . , and 1:10,000, were transferred to plates using the spread plate method onto Plate Count Agar; and SAB Dextrose Agar in addition for the Candida and Aspergillus species; and incubated as follows: 35° C.+/−2° C. for the Plate Count Agar and 22° C.+/−2° C. for the SAB Dextrose plates of Candida albicans and Aspergillus niger. Negative results were not reported before 7 days incubation and counts were performed after no less than 5 days incubation. Counts of Candida and Aspergillus species were made on the agar representing the highest count observed, usually the SAB Dextrose.

Streptococcus faecalis = test: Determination of MIC and MLC in test broth; details: 30-day subculture
Method: as §1, §2, §3, §4

[2] = test system: Penicillium notatum ATCC 36740; test: Determination of MIC and MLC in test broth; details: Penicillium notatum ATCC 36740, 30-day subculture
Method: as §1, §2, §3, §4

[3] = test system: Escherichia coli ATCC 25922; test: Determination of MIC and MLC in test broth; details: Escherichia coli ATCC 25922, 30-day subculture
Method: as §1, §2, §3, §4

[4] = test system: Pseudomonas aeruginosa ATCC 27853; test: Determination of MIC and MLC in test broth; details: Pseudomonas aeruginosa ATCC 27853, 30-day subculture
Method: as §1, §2, §3, §4

[5] = test system: Candida albicans ATCC 10231; test: Determination of MIC and MLC in test broth; details: Candida albicans ATCC 10231, 30-day subculture
Method: as §1, §2, §3, §4

Row | Compound | Grade ([1]; 0.5% (wt/vol), 3 day) | Grade ([1]; 0.5% (wt/vol), 13 day) | Grade ([1]; 0.5% (wt/vol), 30 day) | Grade ([1]; 1.25% (wt/vol), 3 day) | Grade ([1]; 1.25% (wt/vol), 13 day) | Grade ([1]; 1.25% (wt/vol), 30 day) | Grade ([1]; 2.5% (wt/vol), 3 day) | Grade ([1]; 2.5% (wt/vol), 13 day) | Grade ([1]; 2.5% (wt/vol), 30 day) | Grade ([1]; 5.0% (wt/vol), 3 day) | Grade ([1]; 5.0% (wt/vol), 13 day) | Grade ([1]; 5.0% (wt/vol), 30 day) | also measured
1 | OCC1CCCC(CO)C1 (stereo not drawn) [1,3-CHDM, 1,3-cyclohexanedimethanol] | 5 | 5 | 5 | 5 | 4 | 4 | 4 | 4 | 4 | 2 (Countable (10 to 100 colonies)) | 2 (Countable (10 to 100 colonies)) | 4 | 
2 | O=C([O-])CN(CCN(CC(=O)[O-])CC(=O)O)CC(=O)O.[Na+].[Na+] [EDTA, Na2EDTA] | 4 | 4 | 4 | 2 (Countable (10 to 100 colonies)) | 1 (Countable (1 to 10 colonies)) | 3 | 0 | 0 | 0 | 0 | 0 | 0 | 
3 | OCC1CCC(CO)CC1 (stereo not drawn) [1,4-CHDM, 1,4-cyclohexanedimethanol] | 4 | 4 | 4 | 4 | 4 | 4 | 2 (Countable (10 to 100 colonies)) | 1 (Countable (1 to 10 colonies)) | 2.3 | 0 | 0 | 0 | MIC 30 DAYS (Streptococcus pyogenes): 2.5 wt %; MLC 30 DAYS (Streptococcus pyogenes): 20 wt %; MIC 30 DAYS (Streptococcus faecalis): 2.5 wt %; MLC 30 DAYS (Streptococcus faecalis): >20 wt %; MIC 30 DAYS [2]: 5 wt %; MLC 30 DAYS [2]: >20 wt %; MIC 30 DAYS [3]: 2.5 wt %; MLC 30 DAYS [3]: >20 wt %; MIC 30 DAYS [4]: 2.5 wt %; MLC 30 DAYS [4]: 20 wt %; MIC 30 DAYS [5]: 2.5 wt %; MLC 30 DAYS [5]: 20 wt %
4 | CC1(C)C(O)C(C)(C)C1O (stereo not drawn) [TMCBD, 2,2,4,4-tetramethyl-1,3-cyclobutanediol] | 5 | 5 | 5 | 4 | 4 | 4 | 3 | 2 (Countable (10 to 100 colonies)) | 3 | 2 (Countable (10 to 100 colonies)) | 0 | 0 | 
5 | CC(O)CO (stereo not drawn) [PG, propylene glycol] | 5 | 5 | 5 | 5 | 5 | 5 | 4 | 5 | 5 | 4 | 4 | 4 | MIC 30 DAYS (Streptococcus pyogenes): 20 wt %; MLC 30 DAYS (Streptococcus pyogenes): >20 wt %; MIC 30 DAYS (Streptococcus faecalis): 20 wt %; MLC 30 DAYS (Streptococcus faecalis): >20 wt %; MIC 30 DAYS [2]: >20 wt %; MLC 30 DAYS [2]: >20 wt %; MIC 30 DAYS [3]: 10 wt %; MLC 30 DAYS [3]: >20 wt %; MIC 30 DAYS [4]: 10 wt %; MLC 30 DAYS [4]: >20 wt %; MIC 30 DAYS [5]: 20 wt %; MLC 30 DAYS [5]: >20 wt %
6 | CCCCOCCO [EB, 2-butoxyethanol] |  |  |  |  |  |  | 4 | 4 | 4 | 2.5 | 0 | 0 | 
7 | OCC1CCCCC1CO (stereo not drawn) [1,2-CHDM, 1,2-cyclohexanedimethanol] | 4.7 | 4 | 4 | 3.3 | 3.3 | 4 | 2 (Countable (10 to 100 colonies)) | 0 | 0 | 0 | 0 | 0 | 
